Measured values from patent US7816350B2, “Substituted [1,2,3] triazolo[4,5-D]pyrimidines as cdk inhibitors” (Institute of Experimental Botany ASCR, priority 2002, dated 2010).

Legend:
IκB-α kinase = IκB-α kinase inhibitory activity, in vitro kinase assay; format: biochemical
β-adrenergic receptors = assay: Modulation of the activity of β-adrenergic receptors, isoproterenol-induced cAMP synthesis in C6 glioma; format: cell-based; settings: cAMP synthesis induced by 5 μM (−) isoproterenol, rat C6 glioma; for Effect: result in words; for IC50: read-out: I50
Protocol: Rat C6 glioma (ATCC N^o CCL107) was cultivated in monolayer in serum-free chemically defined medium containing Ham's F10/minimal essential medium (1:1 vol/vol), 2 mM L-glutamine, 1% (vol/vol) minimal essential medium vitamins (100×), 1% (vol/vol) minimal essential medium nonessential amino acids (100×), 100 U/ml penicillin, 100 μg/ml streptomycin and 30 nM sodium selenite. Incubation was at 37° C. in a humidified atmosphere. Assays were performed in the logarithmic growth phase at a density of 2.5×10^5 cells/cm^2. Intracellular cAMP synthesis was induced by addition of 5 μM (−) isoproterenol. After 30 min incubation at 37° C. the medium was removed and the cellular amount of cAMP determined using the cAMP-enzyme immunoassay kit of Amersham. The I50 is determined from a dose-response curve in duplicate (Table 7). The effect of seven 8-azapurine-analogs was measured after simultaneous addition with isoproterenol.
As P2Y1-like and A2 purinergic receptors, negatively and positively coupled to adenylate cyclase respectively, are present on rat C6 glioma it has to be determined if the modulation of the synthesis of cAMP is due to inhibition of the activation of β-adrenergic receptors by isoproterenol are due to activation of purinergic receptors.

p34^cdc2/cyclin B (CDC2) = molecular target: T1, p34^cdc2/cyclin B (CDC2) (Homo sapiens, UniProt P06493); assay: CDK inhibition assay, p34cdc2/cyclin B kinase, histone H1 phosphorylation; format: biochemical
T1 construct: made in house; host or cells: Sf9 insect cells (baculovirus co-infection)
Protocol: Cyclin-dependent kinases (p34^cdc2, p33^cdk2) and cyclins (cyclin B, E) are produced in Sf9 insect cells coinfected with appropriate baculoviral constructs. The cells are harvested 68-72 hrs post infection in lysis buffer for 30 min on ice and the soluble fraction is recovered by centrifugation at 14.000 g for 10 min. The protein extract is stored at −80° C.
Lysis buffer: 50 mM Tris pH 7.4, 150 mM NaCl, 5 mM EDTA, 20 mM NaF, 1% Tween, 1 mM DTT, 0.1 mM PMSF, leupeptine, aprotonine.
To carry out experiments on kinetics under linear conditions, the final point test system for kinase activity measurement is used. The kinase is added to reaction mixture in such a way as to obtain linear activity with respect to the concentration of enzyme and with respect to time.
The p34^cdc2 and p33^cdk2 kinase inhibition determination involves the use of 1 mg/ml histone H1 (Sigma, type III-S) in the presence of 15 μM [γ-^32P]ATP ([…]) (Amersham) in a final volume of 20 μl. Kinase activity is determined at 30° C. in the kinase buffer.
Tested compounds are usually dissolved to 100 mM solutions in DMSO, final concentration of DMSO in reaction mixture never exceeds 1%. The controls contain suitable dilutions of DMSO.
After 10 min, addition 3×SDS sample buffer stops the incubations. Phosphorylated proteins are separated electrophoretically using 12.5% SDS polyacrylamide gel. The measurement of kinase activity is done using digital image analysis.
The kinase activity is expressed as a percentage of maximum activity, the apparent inhibition constants are determined by graphic analysis (FIG. 1).
Kinase buffer: 50 mM Hepes pH 7.4, 10 mM MgCl2, 5 mM EGTA, 10 mM 2-glycerolphosphate, 1 mM NaF, 1 mM DTT

K-562 = assay: In vitro cytotoxic activity, MTT assay, K-562; format: cell-based; settings: Homo sapiens, K562, 72 hours
MCF7 = assay: In vitro cytotoxic activity, MTT assay, MCF7; format: cell-based; settings: Homo sapiens, 72 hours
Description: One of the parameters used, as the basis for colorimetric assays is the metabolic activity of viable cells. For example, a microtiter assay, which uses the tetrazolium salt MTT, is now widely used to quantitate cell proliferation and cytotoxicity. For instance, this assay is used in drug screening programs and in chemosensitivity testing. Because only metabolically active cells cleave tetrazolium salts, these assays detect viable cells exclusively. In the case of MTT assay, yellow soluble tetrazolium salt is reduced to coloured water-insoluble formazan salt. After it is solubilized, the formazan formed can easily and rapidly be quantified in a conventional ELISA plate reader at 570 nm (maximum absorbance). The quantity of reduced formazan corresponds to number of vital cells in the culture.
Human T-lymphoblastic leukemia cell line CEM; promyelocytic HL-60 and monocytic U937 leukemias; breast carcinoma cell lines MCF-7, BT549, MDA-MB-231; glioblastoma U87MG cells; cervical carcinoma cells HELA; sarcoma cells U2OS and Saos2; hepatocellular carcinoma HepG2; mouse immortalized bone marrow macrophages B2.4 and B10A.4; P388D1 and L1210 leukemia; B16 and B16F10 melanomas were used for routine screening of compounds. The cells were maintained in Nunc/Corning 80 cm^2 plastic tissue culture flasks and cultured in cell culture medium (DMEM with 5 g/l glucose, 2 mM glutamine, 100 U/ml penicillin, 100 μg/ml streptomycin, 10% fetal calf serum and sodium bicarbonate).
The cell suspensions that were prepared and diluted according to the particular cell type and the expected target cell density (2.500-30.000 cells per well based on cell growth characteristics) were added by pipette (80 μl) into 96/well microtiter plates. Inoculates were allowed a pre-incubation period of 24 hours at 37° C. and 5% CO2 for stabilisation. Four-fold dilutions of the intended test concentration were added at time zero in 20 μl aliquots to the microtiter plate wells. Usually, test compound was evaluated at six 4-fold dilutions. In routine testing, the highest well concentration was 266.7 μM, but it can be the matter of change dependent on the agent. All drug concentrations were examined in duplicates. Incubations of cells with the test compounds lasted for 72 hours at 37° C., in 5% CO2 atmosphere and 100% humidity. At the end of incubation period, the cells were assayed by using the MTT. Ten microliters of the MTT stock solution were pipetted into each well and incubated further for 1-4 hours. After this incubation period, formazan was solubilized by addition of 100 μl/well of 10% SDS in water (pH=5.5) followed by further incubation at 37° C. overnight. The optical density (OD) was measured at 540 nm with the Labsystem iEMS Reader MF (UK). The tumour cell survival (TCS) was calculated using the following equation: TCS=(ODdrug exposed well/mean ODcontrol wells)×100%. The IC50 value, the drug concentration lethal to 50% of the tumour cells, was calculated from the obtained dose response curves (FIG. 2).

T1 sequence (P06493 whole entry, species assumed): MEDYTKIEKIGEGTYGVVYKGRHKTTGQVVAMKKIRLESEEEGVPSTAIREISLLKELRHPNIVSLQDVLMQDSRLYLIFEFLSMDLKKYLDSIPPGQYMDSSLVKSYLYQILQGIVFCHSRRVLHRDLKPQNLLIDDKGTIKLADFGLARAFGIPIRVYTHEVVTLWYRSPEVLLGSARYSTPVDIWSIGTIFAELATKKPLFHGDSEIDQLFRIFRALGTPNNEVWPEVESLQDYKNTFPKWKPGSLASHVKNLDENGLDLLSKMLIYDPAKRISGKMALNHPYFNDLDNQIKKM
T1 sequence (P14635 whole entry partner, species assumed): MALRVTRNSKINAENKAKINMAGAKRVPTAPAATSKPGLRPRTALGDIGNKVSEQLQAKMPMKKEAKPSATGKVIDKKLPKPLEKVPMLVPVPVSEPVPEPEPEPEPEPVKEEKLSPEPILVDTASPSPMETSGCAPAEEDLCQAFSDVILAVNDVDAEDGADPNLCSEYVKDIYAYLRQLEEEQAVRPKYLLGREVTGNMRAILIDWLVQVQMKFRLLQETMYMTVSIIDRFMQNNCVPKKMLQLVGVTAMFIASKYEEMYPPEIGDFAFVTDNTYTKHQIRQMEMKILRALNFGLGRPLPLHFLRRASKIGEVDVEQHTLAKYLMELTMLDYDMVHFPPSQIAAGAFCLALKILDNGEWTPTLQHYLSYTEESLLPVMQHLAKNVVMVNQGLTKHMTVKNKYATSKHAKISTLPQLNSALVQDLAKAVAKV

## CC(C)n1nnc2c(NCc3ccccc3)nc(NCCN)nc21
IκB-α kinase
  IC50: > 100 µM
β-adrenergic receptors
  Effect, fold activation: 1.1-fold activation
p34^cdc2/cyclin B (CDC2)
  IC50: > 100 µM

## CC(C)n1nnc2c(Nc3cccc(Cl)c3)nc(NC3CCC(N)CC3)nc21 (centres unmarked) [2-(4-aminocyclohexyl)amino-6-(3-chlorophenyl)amino-9-isopropyl-8-azapurine]
K-562
  IC50: 7.4 µM
IκB-α kinase
  IC50: 60 µM
MCF7
  IC50: 6.1 µM
other
  melting point: 221 to 223 °C
p34^cdc2/cyclin B (CDC2)
  IC50: 6.3 µM

## NCCCNc1nc(NCc2ccccc2)c2[nH]nnc2n1 [Example 20, 2-(3-Aminopropylamino)-6-benzylamino-8-azapurine]
other
  melting point: 119 to 124 °C

## CC(C)n1nnc2c(NCc3ccccc3O)nc(N[C@H]3CC[C@H](N)CC3)nc21 [Example 12, 2-(trans-4-Aminocyclohexylamino)-6-(2-hydroxybenzylamino)-9-isopropyl-8-azapurine]
other
  melting point: 120 to 123 °C

## CC(C)C(CO)Nc1nc(NCc2cccc(O)c2)c2nnn(C(C)C)c2n1 (centres unmarked) [Example 9, 2-(1-Hydroxymethyl-2-methylpropylamino)-6-(3-hydroxybenzylamino)-9-isopropyl-8-azapurine]
other
  melting point: 150 to 152 °C

## CC[C@H](CO)Nc1nc(NCc2cccc(O)c2)c2nnn(C(C)C)c2n1 [2-R-(1-hydroxymethyl)propylamino-6-(3-hydroxybenzyl)amino-9-isopropyl-8-azapurine]
IκB-α kinase
  IC50: 85 µM
β-adrenergic receptors
  Effect, fold activation: 1.3-fold activation
p34^cdc2/cyclin B (CDC2)
  IC50: 10 µM

## CC(C)C(CO)Nc1nc(NCc2ccccc2)c2nnn(C(C)C)c2n1 (centres unmarked)
β-adrenergic receptors
  Effect: inhibition
  IC50: 32 ± 2 µM

## CC(C)C(CO)Nc1nc(Nc2cccc(Cl)c2)c2nnn(C(C)C)c2n1 (centres unmarked) [Example 10, 2-(1-Hydroxymethyl-2-methylpropylamino)-6-(3-chloroanilino)-9-isopropyl-8-azapurine]
other
  melting point: 160 to 163 °C

## Clc1nc(NCc2ccccc2)c2[nH]nnc2n1 [Example 18, 2-Chloro-6-benzylamino-8-azapurine]
other
  melting point: 122 to 124 °C

## CC(C)n1nnc2c(NCc3ccccc3)nc(NCCCN)nc21
IκB-α kinase
  IC50: > 100 µM
β-adrenergic receptors
  Effect: inhibition
  IC50: 31 ± 2 µM
p34^cdc2/cyclin B (CDC2)
  IC50: > 100 µM

## Cc1nc(NCc2ccccc2)c2nnn(C(C)C)c2n1 [Example 15, 2-methyl-6-benzylamino-9-isopropyl-8-azapurine]
other
  melting point: 133 to 139 °C
